Test results from US9156889B2, “Drug transporter permeating blood-brain barrier, peptide and use thereof” (priority 2011, dated 2015).
Where no end group is shown, it is not given here.

What was measured:
[1] = tested on: poliovirus (Mahoney strain); assay type: binding
[2] = tested on: Mouse brain capillary endotherial cells (MBEC) 4
[3] = tested on: poliovirus (Mahoney strain); assay type: binding; remark: listed apart in the source
[4] = tested on: poliovirus (Mahoney strain); assay type: binding; remark: listed apart in the source
[5] = tested on: Mouse brain capillary endotherial cells (MBEC) 4; remark: listed apart in the source

SEQ ID NO: 8 (TQFPPVESS; listed as Mus musculus)
binding to poliovirus (western blotting after purification) [1]: directly involved with the binding to poliovirus

dextran
PS value (permeation rate, permeation activity) [2]: 0.20

transferrin
effect on the permeation of poliovirus through the blood-brain barrier [2]: inhibits the permeation of poliovirus

GST-mTfR1 (TQFPPSQSS; not fully specified (N-terminus))
binding to poliovirus: band in western blotting after purification [3]: band was similarly detected

Strep-mTfR1
binding to poliovirus: band in western blotting after purification [3]: band was detected | binding to poliovirus: bands in western blotting after purification [4]: bands were detected

SEQ ID NO: 7 (TQFPPVASS; listed as Homo sapiens)
binding to poliovirus (western blotting after purification) [1]: directly involved with the binding to poliovirus

fluorescence-labeled transferrin
PS value [5]: 0.33

SEQ ID NO: 6 (TQFPPSRSS; listed as Homo sapiens)
binding to poliovirus (western blotting after purification) [1]: directly involved with the binding to poliovirus
